Assays:
[1] = test system: accumulation of sorbitol in the crystalline lenses; test: Inhibition of accumulation of sorbitol in crystalline lenses of diabetic rats; assay type: in vivo, Sprague Dawley rats; details: oral 25 mg/kg at 0, 7 and 24 h, sacrificed 27 h
Protocol: (§1) 2.1 Inhibition of accumulation of sorbitol in crystalline lenses and nerves of diabetic rats:
(§2) The effects of the products according to the invention on the proportion of plasma glucose and the accumulation of sorbitol in the crystalline lenses and sciatic nerves of rats made diabetic by streptozotocin were examined by the method of M. J. Peterson, et al (Metabolism, 28, 456-461 (1979)).
(§3) Fasted Sprague Dawley rats were made diabetic by intraperitoneal injection of streptozotocin (75 mg/kg). The product under test was orally administered at a dose of 25 mg/kg after 0, 7 and 24 hours. The rats were sacrificed 27 hours after induction of diabetes. The crystalline lenses and sciatic nerves were taken and preserved at -20° C. until analysed. The crystalline lenses and sciatic nerves were homogenized in water and the proteins were precipitated from ethanol. The precipitate was eliminated by centrifuging and the supernatant liquid was lyophylised. The sorbitol in the sample was determined by the method of B. Bjorkqvist (J. of Chromatograph, 218, 65-71 (1981)), adapted by A. Lenaers et al. (Arch. Intern. Physiol. Bioch., 91, B, 62-63 (1983)).
(§4) The sample was dissolved in pyridine containing galactitol as an internal standard. Derivatives were formed therefrom by phenylisocyanate during incubation for 1 hour at 60° C. The reaction was then stopped by adding methanol and the derivatives were separated and determined by HPLC.
(§5) The results are expressed as percentage inhibition of the accumulation of sorbitol, compared with the controls.

[2] = test system: sorbitol accumulation in crystalline lenses; test: Effect of in vivo doses on sorbitol accumulation in crystalline lenses of diabetic rats; parameters: species or system Sprague Dawley rats; details: crystalline lenses
Source text: (§6) 2.2 Effect of "in vivo" doses on sorbitol accumulation in sciatic nerves and crystalline lenses of diabetic rats:
(§7) Estimates were made of the effects of the products on the proportion of plasma glucose and the sorbitol content of the crystalline lenses and sciatic nerves of rats.

[3] = Acute oral toxicity (LD50); assay type: in vivo; details: mouse, in vivo, mice, read-out: Lethal dose LD50
Protocol: (§8) The LD 50 was calculated by the method of Litchfield and Wilcoxon (J. Pharmacol. Exp. Ther., 96, 99, 1949) and is expressed in mg/kg. The products were orally administered to mice.
(§9) Behaviour was studied, 2, 4, 6 and 24 hours after treatment. Observation was continued if symptoms persisted at that time. Deaths were recorded during the 14 days after treatment. The results are given in Table II, in which the numbers of the compounds are the same as the numbers given in column 1 of Table I.

[4] = test system: mice; test: Acute oral toxicity (LD50); assay type: in vivo; details: 3 000 mg/kg
Protocol: as §8, §9

[5] = test system: sorbitol accumulation in sciatic nerves; test: Effect of in vivo doses on sorbitol accumulation in sciatic nerves of diabetic rats; parameters: species or system Sprague Dawley rats; details: sciatic nerves
Source text: as §6, §7

[6] = test system: mice; test: Effect on behaviour (Irwin method), side effects; assay type: in vivo; details: mouse, in vivo, po
Protocol: The effect on behaviour was studied by a method derived from that of S. Irwin (Gordon Res. Conf. on Medicinal Chem., 133, 1959). The substances, suspended in 1% tragacanth mucilage, were orally administered via an intra-gastric probe to groups of 5 male mice fasted for 18 hours. The maximum tested dose was 3 000 mg/kg or 1 000 mg/kg, and smaller doses were tested if an effect has been observed.
as §9

[7] = test system: accumulation of sorbitol in the sciatic nerves; test: Inhibition of accumulation of sorbitol in sciatic nerves of diabetic rats; assay type: in vivo, Sprague Dawley rats; details: oral 25 mg/kg at 0, 7 and 24 h, sacrificed 27 h
Protocol: as §1, §2, §3, §4, §5

[8] = Solubility in the aldose reductase test medium; assay type: physicochemical; details: 10^-4 M, aqueous phosphate buffer pH 6.2
Protocol: The effect of products according to the invention in inhibiting enzymatic activity of aldose reductase was determined by spectrophotometrically following for 5 minutes the disappearance of NADPH in an aqueous solution containing 0.067M phosphate buffer (final pH: 6.2), 0.40M lithium sulphate, 5.10^-5 M NADPH, 10^-4 M of the product under test and 100 μl of the enzyme solution, to which 10^-2 M of D,L-glyceraldehyde had been added as substrate. (NADPH=reduced form of nicotinamide adenine dinucleotide phosphate).

[9] = Rattus norvegicus, 27 h, diabetic rats, oral, read-out: ED50 (dose at which measured inhibition of aldose reductase activity is 50%)

| Compound | Inhibition of accumulation of sorbitol in vivo, crystalline lenses [1] | ED50 [2, 9] | therapeutic index MED/ED50, crystalline lenses [2] | LD50 at 336 h [3] | mortality [4] | ED50 [5, 9] | therapeutic index MED/ED50, sciatic nerves [5] | MED (minimum dose at which a side effect is observed) [6] | duration of side effects ([6]; 300 mg/kg) | side-effects ([6]; 300 mg/kg) | Inhibition of accumulation of sorbitol in vivo, in sciatic nerves [7] | insolubility in the tested medium [8] |
| --- | --- | --- | --- | --- | --- | --- | --- | --- | --- | --- | --- | --- |
| O=C1NC(=O)[C@@]2(CCOc3ccc(F)cc32)N1 [sorbinil, d-6-fluoro-spiro-/chromane-4,4'-imidazolidine/-2',5'-dione, reference compound] | 93% | 1 mg/kg | 300 | 1450 mg/kg | all the mice died on the second day | 1 mg/kg | 300 | 300 mg/kg | more than 24 hours | depression with loss of righting reflex and muscular hypotonia | 85% |  |
| O=C(Cc1ccccc1)OCN1C(=O)N(COC(=O)Cc2ccccc2)C2(C1=O)c1ccccc1-c1ccccc12 [Compound 23] | 5% |  |  |  |  |  |  |  |  |  | 7% | insol |
